Laboratory results: paper PMC9501633, “Synthesis, Characterisation and Mechanism of Action of Anticancer 3-Fluoroazetidin-2-ones” (Pharmaceuticals, 2022)

Key:
[1] = tested on: purified bovine brain tubulin; set-up: method as in PMID 31954879; details: 10 μM; cited from earlier work
survivin = test: Western blot of apoptosis regulatory proteins in MCF-7 cells; format: cell-based, human; details: MCF-7, 0.05, 0.1 and 0.5 μM, dose- and time-dependent
Description: Survivin is a member of the inhibitor of apoptosis (IAP) protein family. It is an essential anti-apoptotic protein marker that is overexpressed in most tumour cells and is associated with a poor clinical outcome. Survivin inhibits caspase activation, which is used as an indicator of apoptosis cascades. Survivin selective inhibitor molecules have been identified as cancer therapeutics, including survivin–partner protein interaction inhibitors, survivin homodimerisation inhibitors, survivin gene transcription inhibitors and survivin mRNA inhibitors. We examined the effect of a range of concentrations of compound 33 (0.05, 0.1 and 0.5 μM) on the level of survivin expressed.
Western blot analysis was performed according to the protocols we previously described. MCF-7 cells were seeded at a density of 1 × 10^5 cells/flask in T25 flasks. After 48 h, whole cell lysates were prepared from untreated cells or cells treated with vehicle control (EtOH, 0.1% v/v) or cells treated with compound 33 (0.05 μM, 0.1 μM and 0.5 μM). […] Equal amounts of protein (as determined by a BCA assay) were resolved by SDS-PAGE (12%) followed by transfer to PVDF membranes. […] Proteins were detected using enhanced chemiluminescent Western blot detection (Clarity Western ECL substrate) (Bio-Rad) on the ChemiDoc MP System (Bio-Rad). […]

[2] = tested on: purified bovine brain tubulin; test: Tubulin polymerisation assay (turbidimetric, 340 nm); format: biochemical
Method: Tubulin polymerisation was investigated using a turbidimetric assay which determines the light scattering by microtubules (absorbance at 340 nm) that is proportional to the microtubule polymer concentration.
Tubulin polymerisation was monitored with purified bovine tubulin using the BK006 kit supplied by Cytoskeleton Inc. (Denver, CO, USA), carried out following the manufacturer’s instructions with the standard assay conditions. Purified (>99%) bovine brain tubulin (3 mg/mL) in a buffer containing PIPES (80 mM, pH 6.9), EGTA (0.5 mM), MgCl2 (2 mM), GTP (1 mM) and glycerol (10%) was incubated at 37 °C in the presence of either vehicle (2% (v/v) ddH2O) or paclitaxel (10 µM), CA-4 (10 μM) or 33 (10 and 30 µM). The effect on tubulin assembly was monitored turbidimetrically at 340 nm in a Spectramax 340 PC spectrophotometer (Molecular Devices, Sunnyvale, CA, USA), with the light scattered depending on the concentration of polymerised microtubules formed. The absorbance was measured at 30 s intervals for 60 min.
Figure 7 Effect of β-lactam compound 33 (10 and 30 µM) and paclitaxel (10 µM) on in vitro tubulin polymerisation. Purified bovine tubulin and GTP were mixed in a 96-well plate. Compounds were added and the reaction was started by warming the solution from 4 to 37 °C. Ethanol (1% v/v) was used as a vehicle control. The effect on tubulin assembly was monitored in a Spectramax 340PC spectrophotometer at 340 nm at 30 s intervals for 30 min at 37 °C. […] Each experiment was performed in duplicate.

Compound | reduction in the Vmax of tubulin polymerisation [1] | survivin expression (survivin) | reduction in the Vmax of tubulin polymerisation compared to the vehicle ([2]; 10 μM) | reduction in the Vmax of tubulin polymerisation compared to the vehicle ([2]; 30 µM) | effect on tubulin polymerisation ([2]; paclitaxel 10 µM, 33 10 and 30 µM)
COc1ccc(/C=C\c2cc(OC)c(OC)c(OC)c2)cc1O [CA-4, combretastatin A-4, reference compound] | 6.3 fold | – | – | – | –
COc1ccc(C2C(F)C(=O)N2c2cc(OC)c(OC)c(OC)c2)cc1F (centres unmarked) [Compound 33, 3-Fluoro-4-(3-fluoro-4-methoxyphenyl)-1-(3,4,5-trimethoxyphenyl)azetidin-2-one] | – | downregulation | 3.5 fold | 4 fold | inhibited tubulin polymerisation
